Read-outs that look alike come from different tables or passages of the source.

For this assay, the target named is human TRPA1 channel (Homo sapiens (Human), UniProt O75762). Kind of assay: hTRPA1 CHO Ca2+ FLIPR Tetra assay, block of cinnamaldehyde induced calcium influx. In kind it is cell-based. The conditions noted are these: CHO cells expressing TRPA1, Hill coefficient fixed to 1.5. The method, boiled down:
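Calcium-dye-loaded TRPA1-expressing CHO cells in HBSS/20 mM HEPES pH 7.4, 0.02% BSA were preincubated with compound for 10 or 90 min at room temperature. Calcium influx evoked by roughly an EC50 concentration of cinnamaldehyde was then read on FLIPR Tetra; IC50 came from curve fits with a fixed Hill coefficient.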

Where [1] appears, read: read-out: hTRPA1 IC50 (10 min), compounds incubated 10 minutes at room temperature before cinnamaldehyde agonist.
[2] abbreviates: read-out: hTRPA1 IC50 (90 min), compounds incubated 90 minutes at room temperature before cinnamaldehyde agonist.

human TRPA1 channel, sequence (O75762 whole entry): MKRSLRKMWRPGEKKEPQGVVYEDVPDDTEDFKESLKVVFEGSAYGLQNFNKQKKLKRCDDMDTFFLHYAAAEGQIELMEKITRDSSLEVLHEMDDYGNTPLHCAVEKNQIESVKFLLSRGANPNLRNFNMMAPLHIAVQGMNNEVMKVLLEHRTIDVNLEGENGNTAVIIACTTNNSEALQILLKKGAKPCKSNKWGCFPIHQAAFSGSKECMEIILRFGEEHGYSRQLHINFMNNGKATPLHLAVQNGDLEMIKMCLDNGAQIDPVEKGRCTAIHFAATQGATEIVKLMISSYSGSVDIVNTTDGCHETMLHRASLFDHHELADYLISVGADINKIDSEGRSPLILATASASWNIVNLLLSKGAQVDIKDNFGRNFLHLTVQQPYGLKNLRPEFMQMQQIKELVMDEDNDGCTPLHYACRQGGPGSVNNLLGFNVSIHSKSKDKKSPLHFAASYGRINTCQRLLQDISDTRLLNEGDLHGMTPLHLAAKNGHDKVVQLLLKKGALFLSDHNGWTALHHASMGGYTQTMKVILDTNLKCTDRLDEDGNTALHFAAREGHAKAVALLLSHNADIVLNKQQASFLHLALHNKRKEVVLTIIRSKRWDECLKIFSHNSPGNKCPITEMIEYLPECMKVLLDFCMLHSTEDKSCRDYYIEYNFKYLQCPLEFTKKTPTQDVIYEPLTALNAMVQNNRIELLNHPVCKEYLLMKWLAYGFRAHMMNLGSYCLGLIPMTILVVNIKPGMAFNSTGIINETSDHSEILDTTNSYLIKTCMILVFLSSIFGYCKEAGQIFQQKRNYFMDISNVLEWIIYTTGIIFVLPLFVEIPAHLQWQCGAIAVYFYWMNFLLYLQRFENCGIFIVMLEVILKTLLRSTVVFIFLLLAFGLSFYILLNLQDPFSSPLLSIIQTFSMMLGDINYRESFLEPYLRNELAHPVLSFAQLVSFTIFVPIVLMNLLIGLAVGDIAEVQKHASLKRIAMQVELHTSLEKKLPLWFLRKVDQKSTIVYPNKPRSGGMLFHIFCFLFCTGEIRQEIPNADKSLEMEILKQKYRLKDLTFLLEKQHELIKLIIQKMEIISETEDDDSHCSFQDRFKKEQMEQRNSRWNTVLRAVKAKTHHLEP

As to `O=c1c2cccnc2ncn1Cc1nc([C@H]2[C@@H]3C=C(c4cc(Cl)ccn4)C[C@@H]32)no1` [Example Compound 161, 3-((3-((1S,5S,6R)-3-(4-chloropyridin-2-yl)bicyclo[3.1.0]hex-2-en-6-yl)-1,2,4-oxadiazol-5-yl)methyl)pyrido[2,3-d]pyrimidin-4(3H)-one], the IC50 runs as follows: under setting [1], 315 nM; under setting [2], 200 nM.

For the compound `O=c1c2cccnc2ncn1Cc1nc([C@@H]2[C@H]3C=C(c4cc(Cl)ccn4)C[C@H]32)no1` [Example Compound 162, 3-((3-((1R,5R,6S)-3-(4-chloropyridin-2-yl)bicyclo[3.1.0]hex-2-en-6-yl)-1,2,4-oxadiazol-5-yl)methyl)pyrido[2,3-d]pyrimidin-4(3H)-one], the half-inhibitory concentration (IC50) under setting [1] amounted to 132 nM and the IC50 under setting [2] turned out to be 88 nM. Turning to `Cn1cc(-c2cc(Cl)cc(N3C[C@@H]4[C@H](C3)[C@H]4c3noc(Cn4cnc5ncn(C)c5c4=O)n3)c2)cn1` [Example Compound 163, 1-((3-((1R,5S,6r)-3-(3-chloro-5-(1-methyl-1H-pyrazol-4-yl)phenyl)-3-azabicyclo[3.1.0]hexan-6-yl)-1,2,4-oxadidzol-5-yl)methyl)-7-methyl-1,7-dihydro-6H-purin-6-one], the IC50 reads like this: under setting [1], 71.3 nM; under setting [2], 23 nM. Take `Cc1ccnc2ncn(Cc3nc([C@H]4C[C@H](c5ccc(F)cc5)C4)no3)c(=O)c12` [Example Compound 164, 3-((3-((1r,3r)-3-(4-fluorophenyl)cyclobutyl)-1,2,4-oxadiazol-5-yl)methyl)-5-methylpyrido[2,3-d]pyrimidin-4(3H)-one]: the IC50 under setting [1] came to 15.1 nM.

For `Cc1ccnc2ncn(Cc3nc([C@H]4[C@@H]5Oc6c(Cl)cccc6[C@@H]54)no3)c(=O)c12` [Example Compound 165, 3-((3-((1S,1aR,6bS)-3-chloro-1a,6b-dihydro-1H-cyclopropa[b]benzofuran-1-yl)-1,2,4-oxadiazol-5-yl)methyl)-5-methylpyrido[2,3-d]pyrimidin-4(3H)-one], the IC50 under setting [1] was determined as 22.2 nM. Still for that read-out and setting: in the case of `Cc1cc(C#N)nc2ncn(Cc3nc([C@H]4C[C@](F)(c5ccc(F)cc5)C4)no3)c(=O)c12` [Example Compound 166, 3-((3-((1s,3s)-3-fluoro-3-(4-fluorophenyl)cyclobutyl)-1,2,4-oxadiazol-5-yl)methyl)-5-methyl-4-oxo-3,4-dihydropyrido[2,3-d]pyrimidine-7-carbonitrile] it was 37.6 nM.

For the compound `O=c1c2cccnc2cnn1Cc1nc([C@H]2[C@@H]3CN(c4cc(Cl)ccn4)C[C@@H]32)no1` [Example Compound 167, 6-((3-((1R,5S,6r)-3-(4-chloropyridin-2-yl)-3-azabicyclo[3.1.0]hexan-6-yl)-1,2,4-oxadiazol-5-yl)methyl)pyrido[2,3-d]pyridazin-5(6H)-one], the IC50 under setting [1] stood at 51.1 nM and the IC50 under setting [2] was 46 nM. Turning to `Cc1ccnc2ncn(Cc3nc([C@H]4[C@@H]5CN(c6cc(Cl)ccn6)C[C@@H]54)no3)c(=O)c12` [Example Compound 168, 3-((3-((1R,5S,6r)-3-(4-chloropyridin-2-yl)-3-azabicyclo[3.1.0]hexan-6-yl)-1,2,4-oxadiazol-5-yl)methyl)-5-methylpyrido[2,3-d]pyrimidin-4(3H)-one], under setting [1], the IC50 turned out to be 50.8 nM.

As for `Cn1cc(-c2cccc(N3C[C@@H]4[C@H](C3)[C@H]4c3noc(Cn4ncc5ncccc5c4=O)n3)c2)cn1` [Example Compound 169, 6-((3-((1R,5S,6r)-3-(3-(1-methyl-1H-pyrazol-4-yl)phenyl)-3-azabicyclo[3.1.0]hexan-6-yl)-1,2,4-oxadiazol-5-yl)methyl)pyrido[2,3-d]pyridazin-5(6H)-one], the IC50 stood at 43 nM under setting [1] and 41 nM under setting [2].

In the case of `Cn1cnc2ncn(Cc3nc([C@H]4[C@@H]5CN(c6cc(Cl)c(F)cn6)C[C@@H]54)no3)c(=O)c21` [Example Compound 170, 1-((3-((1R,5S,6r)-3-(4-chloro-5-fluoropyridin-2-yl)-3-azabicyclo[3.1.0]hexan-6-yl)-1,2,4-oxadiazol-5-yl)methyl)-7-methyl-1,7-dihydro-6H-purin-6-one], the IC50 was 233 nM under setting [1] and 130 nM under setting [2]. Taken in the same sequence, the figures for `Cn1cnc2ncn(Cc3nc([C@H]4[C@@H]5CN(c6cccc(C#N)n6)C[C@@H]54)no3)c(=O)c21` [Example Compound 171, 6-((1R,5S,6r)-6-(5-((7-methyl-6-oxo-6,7-dihydro-1H-purin-1-yl)methyl)-1,2,4-oxadiazol-3-yl)-3-azabicyclo[3.1.0]hexan-3-yl)picolinonitrile] were 271 nM and 89 nM.

`Cn1cnc2ncn(Cc3nc([C@@H]4CC[C@@H](c5ccc(F)cc5)C4)no3)c(=O)c21` [Example Compound 172, 1-((3-((1R,3R)-3-(4-fluorophenyl)cyclopentyl)-1,2,4-oxadiazol-5-yl)methyl)-7-methyl-1,7-dihydro-6H-purin-6-one]: the IC50 is 26.6 nM under setting [1] and 18 nM under setting [2]. With `Cn1c(=O)ccc2ncn(Cc3nc([C@H]4[C@@H]5CN(c6cccc(Cl)c6)C[C@@H]54)no3)c(=O)c21` [Example Compound 173, 3-((3-((1R,5S,6r)-3-(3-chlorophenyl)-3-azabicyclo[3.1.0]hexan-6-yl)-1,2,4-oxadiazol-5-yl)methyl)-5-methyl-3,5-dihydropyrido[3,2-d]pyrimidine-4,6-dione], under setting [1], the IC50 amounted to 3.97 nM. Consider `Cn1c(=O)ccc2ncn(Cc3nc([C@H]4[C@@H]5CN(c6cc(Cl)ccn6)C[C@@H]54)no3)c(=O)c21` [Example Compound 174, 3-((3-((1R,5S,6r)-3-(4-chloropyridin-2-yl)-3-azabicyclo[3.1.0]hexan-6-yl)-1,2,4-oxadiazol-5-yl)methyl)-5-methyl-3,5-dihydropyrido[3,2-d]pyrimidine-4,6-dione], for which the IC50 was determined as 60.6 nM under setting [1] and 50 nM under setting [2].

For `Cn1cnc2ncn(Cc3nc([C@H]4[C@@H]5CN(c6ccnc(F)c6)C[C@@H]54)no3)c(=O)c21` [Example Compound 175, 1-((3-((1R,5S,6r)-3-(2-fluoropyridin-4-yl)-3-azabicyclo[3.1.0]hexan-6-yl)-1,2,4-oxadiazol-5-yl)methyl)-7-methyl-1,7-dihydro-6H-purin-6-one], the IC50 is 420 nM under setting [1] and 73 nM under setting [2]. Turning to `Cn1cnc2ncn(Cc3nc([C@H]4C[C@H](Oc5cccc(F)c5)C4)no3)c(=O)c21` [Example Compound 176, 1-((3-((1r,3r)-3-(3-fluorophenoxy)cyclobutyl)-1,2,4-oxadiazol-5-yl)methyl)-7-methyl-1,7-dihydro-6H-purin-6-one], the IC50 under setting [1] came out at 24.3 nM. On the same count and under the same terms, in the case of `Cn1cnc2ncn(Cc3nc([C@H]4C[C@H](Oc5ccc(F)cc5)C4)no3)c(=O)c21` [Example Compound 177, 1-((3-((1r,3r)-3-(4-fluorophenoxy)cyclobutyl)-1,2,4-oxadiazol-5-yl)methyl)-7-methyl-1,7-dihydro-6H-purin-6-one] it was 40.1 nM; in that of `Cn1cnc2ncn(Cc3nc([C@H]4C[C@H](Oc5cccc(C#N)c5)C4)no3)c(=O)c21` [Example Compound 178, 3-((1r,3r)-3-(5-((7-methyl-6-oxo-6,7-dihydro-1H-purin-1-yl)methyl)-1,2,4-oxadiazol-3-yl)cyclobutoxy)benzonitrile], 81.5 nM. Consider `Cn1cc(-c2ccc(N3C[C@@H]4[C@H](C3)[C@H]4c3noc(Cn4cnc5ncn(C)c5c4=O)n3)cc2)cn1` [Example Compound 179, 7-methyl-1-((3-((1R,5S,6r)-3-(4-(1-methyl-1H-pyrazol-4-yl)phenyl)-3-azabicyclo[3.1.0]hexan-6-yl)-1,2,4-oxadiazol-5-yl)methyl)-1,7-dihydro-6H-purin-6-one], for which the IC50 was determined as 134 nM under setting [1] and 67 nM under setting [2].

Take `O=c1c2cccnc2ncn1Cc1nc([C@H]2[C@@H]3C=C(c4cccc(Cl)c4)C[C@@H]32)no1` [Example Compound 180, 3-((3-((1S,5S,6R)-3-(3-chlorophenyl)bicyclo[3.1.0]hex-2-en-6-yl)-1,2,4-oxadiazol-5-yl)methyl)pyrido[2,3-d]pyrimidin-4(3H)-one]: the IC50 is, setting by setting: under setting [1], 23.3 nM; under setting [2], 24 nM. Taken in the same sequence, the figures for `O=c1c2cccnc2ncn1Cc1nc([C@@H]2[C@H]3C=C(c4cccc(Cl)c4)C[C@H]32)no1` [Example Compound 181, 3-((3-((1R,5R,6S)-3-(3-chlorophenyl)bicyclo[3.1.0]hex-2-en-6-yl)-1,2,4-oxadiazol-5-yl)methyl)pyrido[2,3-d]pyrimidin-4(3H)-one] were 21.8 nM and 21 nM. Taken in the same sequence, the figures for `Cn1cnc2ncn(Cc3nc([C@H]4[C@@H]5CN(c6cc(F)ccn6)C[C@@H]54)no3)c(=O)c21` [Example Compound 182, 1-((3-((1R,5S,6r)-3-(4-fluoropyridin-2-yl)-3-azabicyclo[3.1.0]hexan-6-yl)-1,2,4-oxadiazol-5-yl)methyl)-7-methyl-1,7-dihydro-6H-purin-6-one] were 194 nM and 43 nM.

As to `O=c1c2cccnc2ncn1Cc1nc([C@H]2[C@@H]3CN(c4cc(Cl)ccn4)C[C@@H]32)no1` [Example Compound 183, 3-((3-((1R,5S,6r)-3-(4-chloropyridin-2-yl)-3-azabicyclo[3.1.0]hexan-6-yl)-1,2,4-oxadiazol-5-yl)methyl)pyrido[2,3-d]pyrimidin-4(3H)-one], the IC50 runs as follows: under setting [1], 65.1 nM; under setting [2], 52 nM.

These data come from US10711004B2 (Genentech, Inc., priority 2018, dated 2020).
